According to patent US11179397B2, “Imidazopyrimidine derivatives” (Gilead Sciences, Inc., priority 2018, dated 2021):

These compounds were tested against SHP-2 full length protein (Homo sapiens (Human), UniProt Q06124) (assay: SHP-2 biochemical DiFMUP pseudosubstrate-fluorogenic assay). Conditions: 0.2 nM SHP-2, 1 μM IRS-1 activator peptide, 50 μM DiFMUP; read-out: SHP2 IC50.
Description: SHP-2 Biochemical Assay Materials Recombinant SHP-2 full length protein was generated in house. SHP-2 protein tyrosine phosphatase (PTP) domain protein (Catalog number SPR0217-20 ug), NaCl (Catalog number S6546-1L), and KCl (Catalog number 60142-500 mL) were purchased from Sigma-Aldrich (St. Louis, Mo.). IRS-1_[…](dPEG8)[…] peptide […]) was custom made by AnaSpec (Fremont, Calif.). DiFMUP substrate (Catalog number D6567), EDTA (Catalog number E177-500 mL), DTT (Catalog number P2325), and 384-well black polystyrene non-binding surface (Catalog number 3820) were purchased from Fisher Scientific (Hanover Park, Ill.). HEPES (Catalog number 15630-080) was purchased from Life Technologies (Pleasanton, Calif.), and Tween-20 (Catalog number 95059-250) was purchased from VWR (Radnor, Pa.). Method Inhibition of SHP-2 activity by small molecule inhibitors was monitored by a biochemical DiFMUP pseudosubstrate-fluorogenic assay. […] The reaction mix was added to the 384-well non-binding plate which had been pre-spotted with 1:3 serial diluted compounds from 10,000-0.005 nM, and incubated at room temperature for 90 min. DiFMUP substrate at final concentration of 50 μM was then added to the wells and incubated for additional 30 min at room temperature. The final reaction volume was 20 μl/well. […] The inhibitor dose response curves were generated using normalized IC50 regression curve fitting by in house dose response analysis tools. The wells with DMSO vehicle were used as controls (100% signal). The percent (%) control of SHP-2 compound was calculated as: (Compound well fluorescence counts/DMSO fluorescence counts)×100%.

| IC50 | Structure (SMILES) |
| --- | --- |
| 86 nM | Cc1nc(N2CCC3(CCC[C@H]3N)CC2)n2ccnc2c1-c1cccc2cc[nH]c12 [Example 3] |
| 1800 nM | Cc1nc(N2CCC3(CCC[C@H]3N)CC2)n2ccnc2c1-c1ccncc1 [Example 4, (R)-8-(7-methyl-8-(pyridin-4-yl)imidazo[1,2-c]pyrimidin-5-yl)-8-azaspiro[4.5]decan-1-amine] |
| 5400 nM | Cc1nc(N2CCC3(CCC[C@H]3N)CC2)n2ccnc2c1-c1ccccn1 [Example 6, (R)-8-(7-methyl-8-(pyridin-2-yl)imidazo[1,2-c]pyrimidin-5-yl)-8-azaspiro[4.5]decan-1-amine] |
| 26 nM | Cc1nc(N2CCC3(CCC[C@H]3N)CC2)n2ccnc2c1-c1ccccc1Cl [Example 8, (R)-8-(8-(2-chlorophenyl)-7-methylimidazo[1,2-c]pyrimidin-5-yl)-8-azaspiro[4.5]decan-1-amine] |
| > 10000 nM | Cc1cnn(C)c1-c1c(C)nc(N2CCC3(CCC[C@H]3N)CC2)n2ccnc12 [Example 14, (R)-8-(8-(1,4-dimethyl-1H-pyrazol-5-yl)-7-methylimidazo[1,2-c]pyrimidin-5-yl)-8-azaspiro[4.5]decan-1-amine] |
| 570 nM | Cc1nc(N2CCC3(CCC[C@H]3N)CC2)n2ccnc2c1-c1cc(N)ncc1Cl [Example 16, (R)-8-(8-(2-amino-5-chloropyridin-4-yl)-7-methylimidazo[1,2-c]pyrimidin-5-yl)-8-azaspiro[4.5]decan-1-amine] |
| > 10000 nM | Cc1nc(N2CCC3(CCC[C@H]3N)CC2)n2ccnc2c1-c1cccnc1C(F)(F)F [Example 19, (R)-8-(7-methyl-8-(2-(trifluoromethyl)pyridin-3-yl)imidazo[1,2-c]pyrimidin-5-yl)-8-azaspiro[4.5]decan-1-amine] |
| > 10000 nM | Cc1noc(C)c1-c1c(C)nc(N2CCC3(CCC[C@H]3N)CC2)n2ccnc12 [Example 20] |
| > 10000 nM | Cc1nc(N2CCC3(CCC[C@H]3N)CC2)n2ccnc2c1-c1ccccc1C(F)(F)F [Example 21, (R)-8-(7-methyl-8-(2-(trifluoromethyl)phenyl)imidazo[1,2-c]pyrimidin-5-yl)-8-azaspiro[4.5]decan-1-amine] |
| 1700 nM | Cc1nc(N2CCC3(CCC[C@H]3N)CC2)n2ccnc2c1-c1cccnc1 [Example 22, (R)-8-(7-methyl-8-(pyridin-3-yl)imidazo[1,2-c]pyrimidin-5-yl)-8-azaspiro[4.5]decan-1-amine] |
| > 10000 nM | Cc1nc(N2CCC3(CCC[C@H]3N)CC2)n2ccnc2c1-c1ccnc(C(F)(F)F)c1 [Example 24, (R)-8-(7-methyl-8-(2-(trifluoromethyl)pyridin-4-yl)imidazo[1,2-c]pyrimidin-5-yl)-8-azaspiro[4.5]decan-1-amine] |
| 3.3 nM | Cc1nc(N2CCC3(CC2)C[C@H](O)C[C@H]3N)n2ccnc2c1-c1cccc(Cl)c1Cl [Example 34, (2S,4R)-4-amino-8-(8-(2,3-dichlorophenyl)-7-methylimidazo[1,2-c]pyrimidin-5-yl)-8-azaspiro[4.5]decan-2-ol] |
| 23 nM | CC1(CN)CCN(c2ncc(Sc3cccc(Cl)c3Cl)c3nccn23)CC1 [Example 43, (1-(8-((2,3-dichlorophenyl)thio)imidazo[1,2-c]pyrimidin-5-yl)-4-methylpiperidin-4-yl)methanamine] |
| > 10000 nM | NC1CCCCN(c2ncc(Sc3cccc(Cl)c3Cl)c3nccn23)C1 (stereo not shown) [Example 59, 1-(8-((2,3-dichlorophenyl)thio)imidazo[1,2-c]pyrimidin-5-yl)azepan-3-amine] |
| 97 nM | Cc1nc(N2CCC3(CCC[C@H]3N)CC2)n2ncnc2c1-c1cccc(Cl)c1Cl [Example 60, (R)-8-(8-(2,3-dichlorophenyl)-7-methyl-[1,2,4]triazolo[1,5-c]pyrimidin-5-yl)-8-azaspiro[4.5]decan-1-amine] |
| 800 nM | Cc1nnc2c(Sc3cccc(Cl)c3Cl)cnc(N3CCC(C)(CN)CC3)n12 [Example 64, (1-(8-((2,3-dichlorophenyl)thio)-3-methyl-[1,2,4]triazolo[4,3-c]pyrimidin-5-yl)-4-methylpiperidin-4-yl)methanamine] |
| 20 nM | Cc1nc(N2CCC3(CCC[C@H]3N)CC2)n2cnnc2c1-c1cccc(Cl)c1Cl [Example 65, (R)-8-(8-(2,3-dichlorophenyl)-7-methyl[1,2,4]triazolo[4,3-c]pyrimidin-5-yl)-8-azaspiro[4.5]decan-1-amine] |
| 550 nM | C[C@@H]1OCC2(CCN(c3ncc(Sc4nccc5ccccc45)c4nccn34)CC2)[C@@H]1N [Example 118, (3S,4S)-8-(8-(isoquinolin-1-ylthio)imidazo[1,2-c]pyrimidin-5-yl)-3-methyl-2-oxa-8-azaspiro[4.5]decan-4-amine] |
| 51 nM | C[C@@H]1OCC2(CCN(c3ncc(Sc4ccnc5cc(C#N)ccc45)c4nccn34)CC2)[C@@H]1N [Example 125, 4-((5-((3S,4S)-4-amino-3-methyl-2-oxa-8-azaspiro[4.5]decan-8-yl)imidazo[1,2-c]pyrimidin-8-yl)thio)quinoline-7-carbonitrile] |
| 9 nM | C[C@@H]1OCC2(CCN(c3ncc(Sc4ccnc5cc(Cl)ccc45)c4nccn34)CC2)[C@@H]1N [Example 134, (3S,4S)-8-(8-((7-chloroquinolin-4-yl)thio)imidazo[1,2-c]pyrimidin-5-yl)-3-methyl-2-oxa-8-azaspiro[4.5]decan-4-amine] |

| Structure (SMILES) | IC50 |
| --- | --- |
| Cc1nc(N2CCC3(CCC[C@H]3N)CC2)n2ccnc2c1Sc1ccc(N)nc1C(F)(F)F [Example 17, (R)-8-(8-((6-amino-2-(trifluoromethyl)pyridin-3-yl)thio)-7-methylimidazo[1,2-c]pyrimidin-5-yl)-8-azaspiro[4.5]decan-1-amine] | 9.9 nM |
| C[C@@H]1OCC2(CCN(c3ncc(Sc4ccc(N)nc4C(F)(F)F)c4nccn34)CC2)[C@@H]1N [Example 37, (3S,4S)-8-(8-((6-amino-2-(trifluoromethyl)pyridin-3-yl)thio)imidazo[1,2-c]pyrimidin-5-yl)-3-methyl-2-oxa-8-azaspiro[4.5]decan-4-amine] | 17 nM |
| CC1(N)CCN(c2ncc(Sc3ccccc3)c3nccn23)CC1 [Example 49, 4-methyl-1-(8-(phenylthio)imidazo[1,2-c]pyrimidin-5-yl)piperidin-4-amine] | 7200 nM |
| Nc1cc(C(F)(F)F)c(Sc2cnc(N3CCC4(CCC[C@H]4N)CC3)n3ccnc23)cn1 [Example 50, (R)-8-(8-((6-amino-4-(trifluoromethyl)pyridin-3-yl)thio)imidazo[1,2-c]pyrimidin-5-yl)-8-azaspiro[4.5]decan-1-amine] | 7500 nM |
| Nc1ccc(Sc2cnc(N3CCC4(CCC[C@H]4N)CC3)n3ccnc23)c(C(F)(F)F)n1 [Example 51, (R)-8-(8-((6-amino-2-(trifluoromethyl)pyridin-3-yl)thio)imidazo[1,2-c]pyrimidin-5-yl)-8-azaspiro[4.5]decan-1-amine] | 15 nM |
| Nc1cc(Sc2cnc(N3CCC4(CCC[C@H]4N)CC3)n3ccnc23)c(C(F)(F)F)cn1 [Example 53, (R)-8-(8-((2-amino-5-(trifluoromethyl)pyridin-4-yl)thio)imidazo[1,2-c]pyrimidin-5-yl)-8-azaspiro[4.5]decan-1-amine] | 12 nM |
| N[C@@H]1CCCC12CCN(c1ncc(Sc3cncnc3C(F)(F)F)c3nccn13)CC2 [Example 54, (R)-8-(8-((4-(trifluoromethyl)pyrimidin-5-yl)thio)imidazo[1,2-c]pyrimidin-5-yl)-8-azaspiro[4.5]decan-1-amine] | 4800 nM |

Each compound was assayed on NCI-H358 cells (assay: NCI-H358 3D tumor spheroid growth inhibition). Conditions: Homo sapiens, NCI-H358, 168 h, 3D spheroids, 7 days, 3D CellTiter Glo; cellular IC50 designated EC50; read-out: H358 EC50.
Assay type: cell-based
Source text: SHP-2 Cell Based Assay: […] Materials NCI-H358 cell line was purchased from [NT] number ATCC CRL-5807) (Manassas, Va.). RPMI-1640 (Catalog number 10-040-CM) was from Corning Cellgro (Manassas, Va.), Fetal Bovine Serum (FBS) (Catalog number SH30071.03) was from HyClone (Logan, Utanh), and 100× Penicillin/Streptomycin/L-Glutamine stock (Catalog no. 30-009-CI) and 384-well ULA plates (Catalog number 3830) were from Corning (Fremont, Calif.). Method […] At the day of assay, the cells were trypsinized and seeded at 1000 cells/70 μl/well in 384-well ULA plates and incubated at 37° C. incubator with 5% CO2 to allow spheroids to form. […] The plates were incubated for additional 7 days. Then 35 μl of medium from each well was removed, and replaced with 35 μl of 3D CellTiter Glo reagent from Promega. The wells were mixed by pipetting up and down with Biomek FX for 15 times to induce cell lysis and the plates were incubated at room temperature for additional 10 min to stabilize luminescent signal. The luminescence was then read by Envision. The inhibitor dose response curves were generated using normalized cellular IC50 (designated as EC50 in all FIGURES to distinguish from biochemical IC50s) by in house dose response analyses tools. The wells with DMSO vehicle were used as negative controls (0% inhibition). The % inhibition of SHP-2 compounds was calculated as: 100-[(Compound well luminescence counts/DMSO luminescence counts)×100%].

| EC50 | Structure (SMILES) |
| --- | --- |
| 180 nM | Cc1nc(N2CCC3(CCC[C@H]3N)CC2)n2ccnc2c1-c1cnc(N)c(Cl)c1Cl [Example 27] |
| > 12500 nM | CC1(N)CCN(c2ncc(Sc3ccnc(N)c3Cl)c3nccn23)CC1 [Example 36] |
| 240 nM | N[C@@H]1CCCC12CCN(c1ncc(Sc3cccc4ncccc34)c3nccn13)CC2 [Example 84] |

| Structure (SMILES) | EC50 |
| --- | --- |
| C[C@@H]1OCC2(CCN(c3ncc(Sc4cc(N)ncc4C(F)(F)F)c4ncc(Cl)n34)CC2)[C@@H]1N [Example 39] | 570 nM |
